Experimental data taken from US20030109519A1, “Use of selective potassium channel openers” (priority 2001, published 2003).

Experiments:
[1] = tested on: diabetic Zucker rats; assay: Oral glucose tolerance test after 3 weeks dosing in diabetic Zucker rats; format: in vivo, rat; details: male diabetic Zucker rats, 1.5 mg/kg bid for 3 weeks, vs vehicle
Experimental: (§1) A study was performed in a colony of diabetic Zucker rats housed in Vancouver, Canada. This is a model of hyperinsulinemia and impaired glucose tolerance/mild type 2 diabetes. The aim was to investigate whether treatment with the test compound 6-chloro-3-(1-methylcylodopropyl)amino-4H-thieno[3,2-e]-1,2,4-thiadiazine 1,1-dioxide could lead to a reduction in hyperinsulinemia and an improvement in insulin secretory responsiveness to glucose in the perfused pancreas. Male diabetic Zucker rats were dosed for 3 weeks with either 1.5 mg/kg 6-chloro-3-(1-methylcylodopropyl)amino-4H-thieno[3,2-e]-1,2,4-thiadiazine 1,1-dioxide bid (n=8) or vehicle (n=16). Oral glucose tolerance was assessed in the animals the day after the last dose was given.

[2] = tested on: perfused pancreas; assay: Perfused pancreas from treated diabetic Zucker rats; format: in vivo, rat
Experimental: as §1

[3] = biological target: KATP-channels on pancreatic beta-cells (Homo sapiens, UniProt Q09428); details: by activation of KATP-channels on pancreatic beta-cells; Pirotte et al. 1993, 1994; cited from earlier work
Sequence of KATP-channels on pancreatic beta-cells (Q09428 whole entry): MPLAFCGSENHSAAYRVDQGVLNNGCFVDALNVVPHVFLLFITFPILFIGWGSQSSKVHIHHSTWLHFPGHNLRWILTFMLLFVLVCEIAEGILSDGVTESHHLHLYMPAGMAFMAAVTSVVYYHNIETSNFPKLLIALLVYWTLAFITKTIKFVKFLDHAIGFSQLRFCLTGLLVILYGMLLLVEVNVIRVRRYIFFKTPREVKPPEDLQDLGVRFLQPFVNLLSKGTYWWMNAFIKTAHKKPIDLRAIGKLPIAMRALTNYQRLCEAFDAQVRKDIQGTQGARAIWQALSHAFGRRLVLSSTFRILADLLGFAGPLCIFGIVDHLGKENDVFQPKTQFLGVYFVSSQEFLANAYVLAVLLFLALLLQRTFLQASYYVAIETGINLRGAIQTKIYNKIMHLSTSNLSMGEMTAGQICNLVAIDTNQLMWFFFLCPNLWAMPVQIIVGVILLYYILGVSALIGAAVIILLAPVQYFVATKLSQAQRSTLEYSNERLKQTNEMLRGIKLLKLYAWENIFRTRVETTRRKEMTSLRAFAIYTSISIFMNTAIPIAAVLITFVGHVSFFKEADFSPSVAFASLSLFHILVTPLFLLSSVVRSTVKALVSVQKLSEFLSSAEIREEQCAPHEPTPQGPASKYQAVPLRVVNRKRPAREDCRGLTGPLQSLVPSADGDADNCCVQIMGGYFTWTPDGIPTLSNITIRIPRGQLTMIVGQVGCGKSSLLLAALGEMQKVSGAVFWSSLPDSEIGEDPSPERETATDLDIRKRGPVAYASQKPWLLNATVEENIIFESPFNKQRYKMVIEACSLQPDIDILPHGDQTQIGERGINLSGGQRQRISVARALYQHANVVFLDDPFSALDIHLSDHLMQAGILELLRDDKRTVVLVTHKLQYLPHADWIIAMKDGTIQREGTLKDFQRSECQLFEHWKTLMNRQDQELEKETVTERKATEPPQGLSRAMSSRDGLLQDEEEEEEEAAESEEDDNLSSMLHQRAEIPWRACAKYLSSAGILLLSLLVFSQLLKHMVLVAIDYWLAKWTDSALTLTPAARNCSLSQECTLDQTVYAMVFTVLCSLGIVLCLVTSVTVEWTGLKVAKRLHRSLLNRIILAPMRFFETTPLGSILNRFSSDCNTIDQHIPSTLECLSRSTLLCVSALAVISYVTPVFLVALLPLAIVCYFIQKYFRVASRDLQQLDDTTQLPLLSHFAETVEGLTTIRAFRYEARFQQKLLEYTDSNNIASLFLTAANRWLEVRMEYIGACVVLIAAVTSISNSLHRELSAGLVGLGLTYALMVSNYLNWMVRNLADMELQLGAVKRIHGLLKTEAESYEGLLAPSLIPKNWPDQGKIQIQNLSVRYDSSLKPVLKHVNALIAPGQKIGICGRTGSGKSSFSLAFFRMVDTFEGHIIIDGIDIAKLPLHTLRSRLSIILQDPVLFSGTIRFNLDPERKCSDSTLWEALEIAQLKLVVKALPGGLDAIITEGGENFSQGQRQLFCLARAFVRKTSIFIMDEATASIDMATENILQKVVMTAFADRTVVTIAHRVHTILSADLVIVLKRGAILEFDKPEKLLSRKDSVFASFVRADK
Sequence of KATP-channels on pancreatic beta-cells (Q14654 whole entry partner): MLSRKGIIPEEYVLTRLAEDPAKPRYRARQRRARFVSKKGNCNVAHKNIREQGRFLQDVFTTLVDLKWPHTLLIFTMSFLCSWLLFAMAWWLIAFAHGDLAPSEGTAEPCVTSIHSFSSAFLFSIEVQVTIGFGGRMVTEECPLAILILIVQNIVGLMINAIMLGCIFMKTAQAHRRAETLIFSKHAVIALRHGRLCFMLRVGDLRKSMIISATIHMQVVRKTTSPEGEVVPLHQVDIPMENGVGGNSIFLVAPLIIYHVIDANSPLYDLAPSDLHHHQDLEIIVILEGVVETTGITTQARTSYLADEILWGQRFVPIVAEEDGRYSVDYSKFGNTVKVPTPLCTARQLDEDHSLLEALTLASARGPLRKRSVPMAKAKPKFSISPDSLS

| Structure (SMILES) | oral glucose tolerance ([1]; assessed the day after the last dose) | hyperinsulinemia (associated with the oral glucose tolerance test) ([1]; day after the last dose) | hyperinsulinemia in perfused pancreas ([2]; pancreata from rats treated 1.5 mg/kg bid for 3 weeks, evaluated two days after OGTT) | insulin secretory responsiveness to glucose in perfused pancreas ([2]; pancreata from treated rats, two days after OGTT, data expressed relative to baseline) | insulin release [3] |
| --- | --- | --- | --- | --- | --- |
| CC1(NC2=NS(=O)(=O)c3sc(Cl)cc3N2)CC1 [6-chloro-3-(1-methylcylodopropyl)amino-4H-thieno[3,2-e]-1,2,4-thiadiazine 1,1-dioxide] | significantly improved | significant reduction in hyperinsulinemia | reduced hyperinsulinemia | improved insulin secretory responsiveness to glucose |  |
| CC1=Nc2ccc(Cl)cc2S(=O)(=O)N1 [diazoxide, 7-chloro-3-methyl-2H-1,2,4-benzothiadiazine 1,1-dioxide] |  |  |  |  | inhibit insulin release |
